Assay results taken from patent US20230257372A1 (CHONG KUN DANG PHARMACEUTICAL CORP., priority 2020, published 2023).
Like-named read-outs stand apart in the source and are kept apart here.

Assays:
human recombinant HDAC1 = biological target: T1, human recombinant HDAC1 (Homo sapiens, UniProt Q13547); test: HDAC1 enzyme activity inhibition (HDAC Fluorimetric Drug Discovery Kit); format: biochemical; settings: read-out: HDAC1
T1 construct: purchased Enzo Life Science, Inc. BML-SE456
In short: (§1)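 Compounds in 5-fold dilution series were incubated with […] enzyme and 10 μM substrate at 30° C for 60 minutes. Fluor de Lys Developer II was then added for 30 minutes to stop the reaction and develop the fluorescent signal.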

human recombinant HDAC6 = biological target: T2, human recombinant HDAC6 (Homo sapiens, UniProt Q9UBN7); test: HDAC6 enzyme activity inhibition (HDAC Fluorimetric Drug Discovery Kit); format: biochemical
T2 construct: purchased Calbiochem Inc. 382180
T2 sequence (Q9UBN7 1-1215): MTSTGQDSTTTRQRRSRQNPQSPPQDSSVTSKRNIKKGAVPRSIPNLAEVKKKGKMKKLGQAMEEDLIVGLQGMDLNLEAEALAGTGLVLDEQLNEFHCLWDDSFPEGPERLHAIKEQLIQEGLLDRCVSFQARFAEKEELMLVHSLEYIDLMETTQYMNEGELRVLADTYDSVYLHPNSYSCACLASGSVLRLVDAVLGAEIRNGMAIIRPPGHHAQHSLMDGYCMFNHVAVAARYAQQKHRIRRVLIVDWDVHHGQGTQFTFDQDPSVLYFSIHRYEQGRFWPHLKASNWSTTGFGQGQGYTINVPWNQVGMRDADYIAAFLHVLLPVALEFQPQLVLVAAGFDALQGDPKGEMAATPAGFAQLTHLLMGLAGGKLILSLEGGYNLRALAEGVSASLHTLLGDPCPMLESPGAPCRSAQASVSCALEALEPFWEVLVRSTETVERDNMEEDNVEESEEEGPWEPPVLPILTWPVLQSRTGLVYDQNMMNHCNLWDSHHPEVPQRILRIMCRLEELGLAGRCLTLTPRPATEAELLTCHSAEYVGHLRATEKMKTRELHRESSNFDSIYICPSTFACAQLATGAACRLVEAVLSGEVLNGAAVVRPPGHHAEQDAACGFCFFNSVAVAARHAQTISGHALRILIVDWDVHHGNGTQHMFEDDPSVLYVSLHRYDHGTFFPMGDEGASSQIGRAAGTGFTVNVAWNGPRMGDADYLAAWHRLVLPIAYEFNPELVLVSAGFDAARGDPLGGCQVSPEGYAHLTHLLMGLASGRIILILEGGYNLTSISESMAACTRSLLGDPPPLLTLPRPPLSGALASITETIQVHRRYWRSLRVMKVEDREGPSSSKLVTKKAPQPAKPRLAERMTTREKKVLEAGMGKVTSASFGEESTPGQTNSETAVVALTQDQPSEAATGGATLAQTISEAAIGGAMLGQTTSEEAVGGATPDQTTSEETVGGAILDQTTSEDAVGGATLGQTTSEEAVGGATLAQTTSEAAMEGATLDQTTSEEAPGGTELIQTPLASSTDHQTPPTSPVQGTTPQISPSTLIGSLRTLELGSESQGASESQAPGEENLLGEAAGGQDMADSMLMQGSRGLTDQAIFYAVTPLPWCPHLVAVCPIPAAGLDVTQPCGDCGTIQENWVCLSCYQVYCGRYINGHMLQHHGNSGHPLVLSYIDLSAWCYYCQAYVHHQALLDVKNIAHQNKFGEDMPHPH
In short: as §1

[1] = human recombinant HDAC1, Fluor de Lys substrate, 30° C. 60 minutes
[2] = human recombinant HDAC6, same protocol as HDAC1
[3] = human recombinant HDAC1, IC50 calculated with GraphPad Prism
[4] = human recombinant HDAC6, IC50 calculated with GraphPad Prism

T1 sequence (Q13547 whole entry): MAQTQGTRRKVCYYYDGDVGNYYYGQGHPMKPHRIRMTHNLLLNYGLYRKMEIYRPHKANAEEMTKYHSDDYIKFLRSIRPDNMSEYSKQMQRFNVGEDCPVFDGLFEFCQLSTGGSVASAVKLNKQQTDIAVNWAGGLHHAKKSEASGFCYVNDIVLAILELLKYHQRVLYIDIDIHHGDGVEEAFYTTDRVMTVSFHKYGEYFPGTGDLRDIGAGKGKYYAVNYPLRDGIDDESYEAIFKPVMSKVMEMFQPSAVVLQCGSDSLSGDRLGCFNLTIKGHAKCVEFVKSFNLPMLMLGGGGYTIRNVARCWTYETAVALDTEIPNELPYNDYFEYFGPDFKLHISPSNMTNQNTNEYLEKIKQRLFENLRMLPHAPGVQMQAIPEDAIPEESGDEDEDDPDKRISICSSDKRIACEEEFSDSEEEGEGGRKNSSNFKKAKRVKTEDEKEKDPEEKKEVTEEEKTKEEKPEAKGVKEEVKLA

Structure (SMILES) | IC50 (human recombinant HDAC1; [1]) | HDAC6 selectivity (fold) (human recombinant HDAC6; HDAC6 over HDAC1) | IC50 (human recombinant HDAC6; [2]) | IC50 (human recombinant HDAC1; [3]) | HDAC6 selectivity (fold) (human recombinant HDAC6; HDAC1 IC50 / HDAC6 IC50) | IC50 (human recombinant HDAC6; [4])
CN1CC(c2cccc(-c3cn(Cc4ccc(-c5nnc(C(F)F)o5)cc4)nn3)c2)C1 [Compound 4528, 2-(difluoromethyl)-5-(4-((4-(3-(1-methylazetidin-3-yl)phenyl)-1H-1,2,3-triazol-1-yl)methyl)phenyl)-1,3,4-oxadiazole] | > 50000 nM | 371 fold | 135 nM | – | – | –
Fc1cc(-c2nnc(C(F)F)o2)ccc1Cn1cc(-c2cccc3cc[nH]c23)nn1 [Compound 4082, 2-(4-((4-(1H-indol-7-yl)-1H-1,2,3-triazol-1-yl)methyl)-3-fluorophenyl)-5-(difluoromethyl)-1,3,4-oxadiazole] | – | – | – | > 50000 nM | 349 fold | 143 nM
CN(C)c1cccc(-c2cn(Cc3ccc(-c4nnc(C(F)F)o4)cc3F)nn2)c1 [Compound 3774, 3-(1-(4-(5-(difluoromethyl)-1,3,4-oxadiazol-2-yl)-2-fluorobenzyl)-1H-1,2,3-triazol-4-yl)-N,N-dimethylaniline] | – | – | – | > 50000 nM | 412 fold | 121 nM
FC(F)c1nnc(-c2ccc(Cn3cc(C4=CCCCC4)nn3)nc2)o1 [Compound 3879, 2-(6-((4-(cyclohex-1-ene-1-yl)-1H-1,2,3-triazol-1-yl)methyl)pyridin-3-yl)-5-(difluoromethyl)-1,3,4-oxadiazole] | – | – | – | > 50000 nM | 773 fold | 64.6 nM
CC(C)C(=O)N1CC(c2cn(Cc3ccc(-c4nnc(C(F)F)o4)cn3)nn2)C1 [Compound 3958, 1-(3-(1-((5-(5-(difluoromethyl)-1,3,4-oxadiazol-2-yl)pyridin-2-yl)methyl)-1H-1,2,3-triazol-4-yl)azetidin-1-yl)-2-methylpropan-1-one] | – | – | – | > 50000 nM | 116 fold | 429 nM
Fc1cc(-c2nnc(C(F)F)o2)ccc1Cn1cc(-c2ccc3c(c2)CN(C2COC2)CC3)nn1 [Compound 4367, 2-(difluoromethyl)-5-(3-fluoro-4-((4-(2-(oxetan-3-yl)-1,2,3,4-tetrahydroisoquinolin-7-yl)-1H-1,2,3-triazol-1-yl)methyl)phenyl)-1,3,4-oxadiazole] | – | – | – | > 50000 nM | 1210 fold | 41.3 nM
Fc1cc(-c2nnc(C(F)F)o2)ccc1Cn1cc(C2(F)CCOC2)nn1 (stereo not drawn) [Compound 4283, 2-(difluoromethyl)-5-(3-fluoro-4-((4-(3-fluorotetrahydrofuran-3-yl)-1H-1,2,3-triazol-1-yl)methyl)phenyl)-1,3,4-oxadiazole] | – | – | – | > 50000 nM | 203 fold | 246 nM
Fc1cc(-c2nnc(C(F)F)o2)ccc1Cn1cc(-c2ccc3c(c2)CCN(C2CN(C4COC4)C2)C3)nn1 [Compound 4395, 2-(difluoromethyl)-5-(3-fluoro-4-((4-(2-(1-(oxetan-3-yl)azetidin-3-yl)-1,2,3,4-tetrahydroisoquinolin-6-yl)-1H-1,2,3-triazol-1-yl)methyl)phenyl)-1,3,4-oxadiazole] | – | – | – | > 50000 nM | 1024 fold | 48.8 nM
Fc1cc(-c2nnc(C(F)F)o2)ccc1Cn1cc(-c2ccc3c(c2)CCN(C2COC2)C3)nn1 [Compound 4362, 2-(difluoromethyl)-5-(3-fluoro-4-((4-(2-(oxetan-3-yl)-1,2,3,4-tetrahydroisoquinolin-6-yl)-1H-1,2,3-triazol-1-yl)methyl)phenyl)-1,3,4-oxadiazole] | – | – | – | > 50000 nM | 762 fold | 65.6 nM
FC(F)c1nnc(-c2ccc(Cn3cc(-c4cccc5cc[nH]c45)nn3)nc2)o1 [Compound 4071, 2-(6-((4-(1H-indol-7-yl)-1H-1,2,3-triazol-1-yl)methyl)pyridin-3-yl)-5-(difluoromethyl)-1,3,4-oxadiazole] | – | – | – | > 50000 nM | 347 fold | 144 nM
CC(C)(C)OC(=O)Nc1cccc(-c2cn(Cc3ccc(-c4nnc(C(F)F)o4)cc3)nn2)c1 [Compound 3698, Tert-butyl (3-(1-(4-(5-(difluoromethyl)-1,3,4-oxadiazol-2-yl)benzyl)-1H-1,2,3-triazol-4-yl)phenyl)carbamate] | – | – | – | > 50000 nM | 1096 fold | 45.6 nM
CC(C)N1Cc2cccc(-c3cn(Cc4ccc(-c5nnc(C(F)F)o5)cn4)nn3)c2C1 [Compound 4597, 2-(difluoromethyl)-5-(6-((4-(2-isopropylisoindolin-4-yl)-1H-1,2,3-triazol-1-yl)methyl)pyridin-3-yl)-1,3,4-oxadiazole] | > 50000 nM | 813 fold | 61.5 nM | – | – | –
CC(C)(F)C(=O)N1CCC(c2cn(Cc3ccc(-c4nnc(C(F)F)o4)cn3)nn2)CC1 [Compound 3894] | – | – | – | > 50000 nM | 498 fold | 100 nM
CCN1CC(N2CCc3cc(-c4cn(Cc5ccc(-c6nnc(C(F)F)o6)cc5F)nn4)ccc3C2)C1 [Compound 4392, 2-(difluoromethyl)-5-(4-((4-(2-(1-ethylazetidin-3-yl)-1,2,3,4-tetrahydroisoquinolin-6-yl)-1H-1,2,3-triazol-1-yl)methyl)-3-fluorophenyl)-1,3,4-oxadiazole] | – | – | – | > 50000 nM | 1262 fold | 39.6 nM
CCCN1CCN(c2cccc(-c3cn(Cc4ccc(-c5nnc(C(F)F)o5)cc4F)nn3)c2)CC1 [Compound 4374, 2-(difluoromethyl)-5-(3-fluoro-4-((4-(3-(4-propylpiperazin-1-yl)phenyl)-1H-1,2,3-triazol-1-yl)methyl)phenyl)-1,3,4-oxadiazole] | – | – | – | > 50000 nM | 228 fold | 21.9 nM
CCN1CCc2cc(-c3cn(Cc4ccc(-c5nnc(C(F)F)o5)cc4F)nn3)ccc2C1 [Compound 4359, 2-(difluoromethyl)-5-(4-((4-(2-ethyl-1,2,3,4-tetrahydroisoquinolin-6-yl)-1H-1,2,3-triazol-1-yl)methyl)-3-fluorophenyl)-1,3,4-oxadiazole] | – | – | – | > 50000 nM | 1182 fold | 42.3 nM
Fc1cc(-c2nnc(C(F)F)o2)ccc1Cn1cc(-c2ccccc2CN2CC3(COC3)C2)nn1 [Compound 4586, 6-(2-(1-(4-(5-(difluoromethyl)-1,3,4-oxadiazol-2-yl)-2-fluorobenzyl)-1H-1,2,3-triazol-4-yl)benzyl)-2-oxa-6-azaspiro[3.3]heptane] | > 50000 nM | 225 fold | 222 nM | – | – | –
CC(C)N1CC(N2CCc3cc(-c4cn(Cc5ccc(-c6nnc(C(F)F)o6)cc5F)nn4)ccc3C2)C1 [Compound 4393, 2-(difluoromethyl)-5-(3-fluoro-4-((4-(2-(1-isopropylazetidin-3-yl)-1,2,3,4-tetrahydroisoquinolin-6-yl)-1H-1,2,3-triazol-1-yl)methyl)phenyl)-1,3,4-oxadiazole] | – | – | – | > 50000 nM | 1381 fold | 36.2 nM
CC(C)N1CCN(c2cccc(-c3cn(Cc4ccc(-c5nnc(C(F)F)o5)cn4)nn3)c2F)CC1 [Compound 4571, 2-(difluoromethyl)-5-(6-((4-(2-fluoro-3-(4-isopropylpiperazin-1-yl)phenyl)-1H-1,2,3-triazol-1-yl)methyl)pyridin-3-yl)-1,3,4-oxadiazole] | > 50000 nM | 2732 fold | 18.3 nM | – | – | –
FC(F)c1nnc(-c2ccc(Cn3cc(C4CCCC4)nn3)nc2)o1 [Compound 3846, 2-(6-((4-cyclopentyl-1H-1,2,3-triazol-1-yl)methyl)pyridin-3-yl)-5-(difluoromethyl)-1,3,4-oxadiazole] | – | – | – | > 50000 nM | 630 fold | 79.3 nM
